Columns and labels:
Assay type in all cases: cell-based
[1] = system: five representative oral bacterial species: A. viscosus, L. casei, S. oralis, V. parvula and F. nucleatum; assay: Example 1: bacterial growth in the supernatant media of healthy biofilm model (absorbance); details: for % bacterial reduction (A): compound 0.01 wt. %, 48 hours, reduction in absorbance of supernatant media relative to disks treated with media alone
Protocol: (§1) 0.5″ Ca^2+-deficient hydroxyapatite (HAP) disks were coated with UV-sterilized human saliva overnight.
(§2) After 1 hour, excess treatment was removed by aspiration and disks were inoculated with 1 ml of bacteria from a continuous culture system at an OD(600) of about 0.2. The continuous culture system was maintained for approximately three months at 37° C. and contained five representative oral bacterial species: A. viscosus, L. casei, S. oralis, V. parvula and F. nucleatum. Previous work has shown this mix to form repeatable biofilms that can serve as a representation of the more complex mix of 500-700 bacterial species found in dental plaque.
(§3) The inoculated scHAP disks were incubated for 48 hours at 37° C. to allow a biofilm to form on them. After 48 hours of biofilm formation, disks were transferred to test tubes containing 1 ml of 0.25% trypsin solution. Disks were incubated at 37° C. with shaking for 45 minutes. The tubes were briefly vortexed to resuspend the bacteria, and the supernatants were then transferred to a fresh 24 well plate. Plates were […] for 2 minutes to pellet any residual HAP flakes and the supernatants were removed to fresh plates so that their absorbance could be measured at 610 nm. All samples were tested in triplicate and the average of the three wells was determined.
In addition to the absorbance of the trypsin-digested resuspended bacterial solution, similar absorbance measurements were also taken of the final supernatant media after the biofilms were allowed to grow for 48 hours.
The effect of 2-deoxy-D-glucose on bacterial growth in the supernatant media in which the biofilms were grown is shown in the table below.

[2] = system: biofilm of five representative oral bacterial species: A. viscosus, L. casei, S. oralis, V. parvula and F. nucleatum; assay: Example 1: healthy biofilm formation on saliva-coated HAP disks (absorbance at 610 nm after trypsin); details: for biofilm inhibition (in words): 0.01 wt. %, Example 1; for % biofilm inhibition (B) / % biofilm inhibition efficiency (C): compound 0.01 wt. %; for % biofilm inhibition (B): 48 hours biofilm, reduction in absorbance relative to disks treated with media alone; for % biofilm inhibition efficiency (C): C=B/A×100%
Protocol: as §1, §2, §3

[3] = system: pathogenic biofilm spiked with P. gingivalis; assay: Example 3: pathogenic biofilm model spiked with P. gingivalis; details: overall conclusion, no data given
Protocol: A similar experiment was conducted using a pathogenic biofilm model. Biofilms were inoculated as above for the healthy biofilms. Initial bacterial attachment and biofilm formation was allowed to proceed for 4 hours. After the initial 4 hours, each biofilm was spiked with 100 μL of an overnight culture of P. gingivalis. Biofilms were then allowed to grow for another 48 hours prior to trypsin treatment, and absorbance measurements were taken as described above.

[4] = system: biofilm of Actinomyces naeslundii (ATCC 43146), Lactobacillus casei (ATCC 334), Streptococcus oralis (ATCC 35037), Veillonella parvula (ATCC 17745) and …; assay: Example 2: biofilm formation on hydroxyapatite discs (safranine staining, absorbance at 492 nm); details: for biofilm inhibition (in words): 0.01 wt. %, Example 2; for % biofilm inhibition: compound 0.01 wt. %, 24 hours, safranine, absorbance at 492 nm
Protocol: (§4) A similar test protocol to Example 1 was performed and tested for its effect in the inhibition of planktonic growth and inhibition of biofilm formation
(§5) The species used for biofilm formation were: Actinomyces naeslundii (ATCC 43146). Lactobacillus casei (ATCC 334), Streptococcus oralis (ATCC 35037), Veillonella parvula (ATCC 17745) and Fusobacterium nucleatum (ATCC 10953). Strains were grown under anaerobic conditions at 37° C. for 72 hours. All the bacteria were grown on an anaerobic blood agar.
(§6) The formula for the anaerobic blood agar was as follows: 52 g/l Brain Heart Infusion Agar (DIFCO), and after autoclaving the following products are added: 1 ml/l baemin from a solution 5 mg/ml, 1 ml/l of vitamin K1 from a solution 100 μg/ml and 50 ml of horse blood. A 24 well microtiter for cell culture (Nalgene Nunc International, Denmark) was used to generate in vitro dental biofilms.
(§7) Wells were filled with 800 μl of the mucin growth medium (MGM), a modification of the medium used by Kinniment et al. (Kinniment, S. L., Wimpenny. J. W., Adams, D., and Marsh, P. D. (1996) Development of a steady-state oral microbial biofilm community using the constant-depth film fermenter. Microbiology 142 (Pt 3): 631-638) which presents a high concentration of proteins: 2.5 g/l mucin, 5 g/l Heart Infusion Broth (DIFCO), 2.0 g/l sodium bicarbonate, 1.0 g/l yeast extract and 0.1 g/l cysteine and 4 ml resazurin from a solution 25 mg/100 ml.
The pH is adjusted to 7.4 prior to autoclaving. After autoclaving the following products was added: 1 ml/l haemin from a solution 5 mg/ml and 1 mL/l of vitamin K1 from a solution 100 μg/ml. Sterile hydroxyapatite discs of 7 mm×1.8 mm (Clarkson Inc., USA) was later placed into the wells. In order to form the acquired pellicle the discs were allowed to stay at least 60 hours in contact with the medium under anaerobic conditions prior inoculation. This period of pre-incubation allows checking for possible contaminations and adjusts the final pH to 7.5.
Each of the strains grown on agar was resuspended in MGM medium until reach a turbidity of a McFarlan 3 (approximately 10^8 CFU/ml). Finally, 1 ml of each suspension from the different strains was mixed and 50 μl of this suspension was added into each of the wells in the microtiter plate. Microtiter plates were incubated under anaerobic conditions at 37° C. in an anaerobic chamber. A control of growth was performed in parallel. […]
(§8) After 24 hours planktonic phase was saved to measure growth at OD600 and hydroxyapatite disks were washed with sterile PBS and stained with safranine 0.1% for 15 minutes. […] Absorbance at 492 nm measures the amount of safranine retained by the biofilm.

[5] = system: Actinomyces naeslundii (ATCC 43146), Lactobacillus casei (ATCC 334), Streptococcus oralis (ATCC 35037), Veillonella parvula (ATCC 17745) and Fusobacterium …; assay: Example 2: planktonic growth (OD600) in healthy biofilm model; details: for % planktonic growth inhibition: compound 0.01 wt. %, 24 hours, OD600
Protocol: as §4, §5, §6, §7
The pH is adjusted to 7.4 prior to autoclaving. After autoclaving the following products was added: 1 ml/l haemin from a solution 5 mg/ml and 1 mL/l of vitamin K1 from a solution 100 μg/ml. Sterile hydroxyapatite discs of 7 mm×1.8 mm (Clarkson Inc., USA) was later placed into the wells. […]
as §8

Row | Molecule | % bacterial reduction (A) [1] | biofilm inhibition (in words) [2] | % biofilm inhibition (B) [2] | % biofilm inhibition efficiency (C) [2] | inhibition of oral biofilm formation (in words) [3] | biofilm inhibition (in words) [4] | % biofilm inhibition [4] | % planktonic growth inhibition [5] | bacterial reduction (in words) ([1]; 0.01 wt. %, Example 1) | planktonic growth inhibition (in words) ([5]; 0.01 wt. %, Example 2)
1 | O=C[C@H](F)[C@@H](O)[C@H](O)[C@H](O)CO [2-fluoro-2-deoxy-D-glucose] | 0.00% | effective and efficient inhibitor of biofilm formation | 46.50% | >>>1000% | very good inhibitors of oral biofilm formation | – | – | – | – | –
2 | O=CC[C@@H](O)[C@H](O)[C@H](O)CO [2-deoxy-D-glucose] | 9.81% | – | 30.54% | 311.31% | – | – | – | – | – | –
3 | N[C@H](C=O)[C@@H](O)[C@H](O)[C@H](O)CO [D-mannosamine, 2-amino-2-deoxy-D-mannose] | – | – | – | – | – | effective inhibition of biofilm formation | 34.01% | 0.00% | – | –
4 | Oc1cc(Cl)ccc1Oc1ccc(Cl)cc1Cl [Triclosan] | 85.63% | – | – | – | – | – | – | – | – | –
5 | Cl.NCC(O)CCC(N)C(=O)O (racemic) [DL-5-hydroxylysine HCl, reference compound] | 21.45% | negligible biofilm inhibition | 5.85% | 27.27% | – | minimal biofilm inhibition | 5.91% | 0.00% | significant bacterial reduction | no planktonic growth inhibition
6 | C[C@@H](O)[C@@H](O)[C@H](O)[C@@H](O)C=O [6-deoxy-D-glucose] | 1.54% | effective and efficient inhibitor of biofilm formation | 25.33% | 1644.81% | very good inhibitors of oral biofilm formation | – | – | – | – | –
7 | Benzalkonium chloride [reference compound] | 88.21% | – | 52.58% | 59.61% | – | – | – | – | – | –
8 | CCCCCCCCCCCCCCCC[n+]1ccccc1 [CPC, cetylpyridinium chloride] | 65.44% | – | – | – | – | – | – | – | – | –
